The results in this text go back to publication PMC6656724 (Communications Biology, 2019).

One data set has as its target T1, Homo sapiens KMO (HsKMO) (Homo sapiens, UniProt O15229).
T1 construct: GST; made in house
The data set can be described thus: KMO inhibition assay, NADPH oxidation at 340 nm (HsKMO). The data set is classed as biochemical. From the text:
(§1) A combination of ligand- and structural-based virtual screening approaches (see supporting information for details) was used to identify an initial library of >1000 compounds that may be suitable as potential KMO inhibitors. These compounds were screened for inhibition of Pseudomonas fluorescens KMO (PfKMO) and Homo sapiens KMO (HsKMO) using high-throughput assays by monitoring the time-dependent oxidation of NADPH at 340 nm[23].
(§2) Small-molecule compounds were supplied by Biofocus (Charles River Laboratories International Inc., MA, USA), which were identified in silico as potential inhibitors (further details are described in the Supplementary Methods). Initial inhibition assays were performed against Pseudomonas fluorescens KMO (PfKMO) and Homo sapiens KMO (HsKMO) by monitoring the time-dependent absorbance change of NADPH at 340 nm. Purified KMO protein (200 nM) was incubated in 100 µL reaction buffer (20 mM potassium phosphate pH 8.0, 7 mM 2-mercaptoethanol) containing 100 μM NADPH, 100 μM L-Kyn and 20 μM potential inhibitors in 96-well plates. […] The inhibitors identified in the initial screens were validated and re-assayed individually in a 1 cm path-length quartz micro cuvette. […] Suppliers for target inhibitor compounds are listed in Supplementary Table 11.
Supplementary Figure 1. Examples of inhibition data used to generate IC50 values for selected KMO inhibitors.
NADPH (100µM) were added into reaction buffer (HsKMO: 20mM potassium phosphate pH 8.0, 7 mM 2-mercaptoethanol; PfKMO: 20 mM HEPES, 10mM sodium acetate, pH 7.5, 2mM DTT). The reaction was initiated by the addition of KMO enzyme (HsKMO: 0.5µM; PfKMO: 0.1 µM). KMO activity was measured in the presence of a range of inhibitor concentrations. […]
(§3) 3.5 Steady-state enzymatic assays.
(§4) Initial screening assays and determination of IC50 values for each potential inhibitor compound were carried out using either 0.1 µM PfKMO or 0.5 µM HsKMO at fixed […]
(§5) (HsKMO: 20 mM potassium phosphate pH 8.0, 7 mM 2-mercaptoethanol; PfKMO:
(§6) 20 mM HEPES, 10 mM sodium acetate, pH 7.5, 2 mM DTT). KMO activity was measured in the presence of a range of inhibitor concentrations by monitoring the […]
consumption of NADPH at 340 nm upon addition of enzyme via a Cary 50 UV-Vis spectrophotometer (Agilent Technologies). Rates were determined from linear regression fits to the initial linear portion of the curves. All measurements were performed in triplicate. The IC50 values for inhibitors were obtained by plotting the percentage inhibition versus the inhibitor concentration and fitting to the Morrison equation16 (equation 1) using Origin 9.0 Software (OriginLab, Northampton, MA).
E + I + K!"" − E + I + K!"" ! − 4[E][I] where v0 is the enzyme activity without inhibitor, vi is the enzyme activity with ligand

Data set [1] addresses T2, Pseudomonas fluorescens KMO (PfKMO) (Pseudomonas fluorescens, UniProt Q84HF5, C252S/C461S).
T2 construct: made in house; host or cells: E. coli BL21 (DE3)
The data set can be described thus: biochemical.
Text: as §1, §2
Supplementary Figure 1. Examples of inhibition data used to generate IC50 values for selected KMO inhibitors. Fixed concentration of L -KYN (200 µM) and NADPH (100µM) were added into reaction buffer (HsKMO: 20mM potassium phosphate pH 8.0, 7 mM 2-mercaptoethanol; PfKMO: 20 mM HEPES, 10mM sodium acetate, pH 7.5, 2mM DTT). The reaction was initiated by the addition of KMO enzyme (HsKMO: 0.5µM; PfKMO: 0.1 µM). KMO activity was measured in the presence of a range of inhibitor concentrations. […]
as §3, §4, §5, §6
consumption of NADPH at 340 nm upon addition of enzyme via a Cary 50 UV-Vis spectrophotometer (Agilent Technologies). Rates were determined from linear regression fits to the initial linear portion of the curves. All measurements were performed in triplicate. The IC50 values for inhibitors were obtained by plotting the percentage inhibition versus the inhibitor concentration and fitting to the Morrison equation16 (equation 1) using Origin 9.0 Software (OriginLab, Northampton, MA). […]

The nature of the next data set: in vitro. In kind it is in vitro ADME, canine. The settings on record: dog, MDCK. On the procedure: (§7) internal standard at each timepoint. […]
(§8) including an analytical internal standard.
(§9) Apparent permeability (Papp) values were determined from the relationship: […]
(§10) Where V is the volume of each Transwell compartment (apical 125 µL, basolateral 600 µL), and concentrations are the relative MS responses for compound (normalized to internal standard) in the donor chamber before incubation and acceptor chamber at the end of the incubation. Area = area of cells exposed for drug transfer (0.33 cm 2).
(§11) Efflux ratios (Papp B>A / Papp A>B) were calculated for each compound from the […]
(§12) MDR1-MDCK cell line has been engineered to overexpress the efflux transporter, MDR1 (P-glycoprotein), and a finding of good permeability B>A, but poor […]
(§13) order to confirm the involvement of MDR1 in any efflux seen, an “ef fective efflux ratio” (EER) was calculated by comparing compound efflux ratios (ER) in the two cell types, i.e. EER = ER (MDR1-MDCK)/ ER (wild-type MDCK). This ratio illustrates the effect of the over-expressed MDR1 normalised for the background movement of compound through the wild-type cells.
(§14) Lucifer Yellow (LY) was added to the apical buffer in all wells to assess viability of the cell layer. As LY cannot freely permeate lipophilic barriers, a high degree of LY […]
(§15) validity of other wells on the plate.
(§16) Compound recovery from the wells was determined from MS responses (normalized to internal standard) in donor and acceptor chambers at the end of incubation compared to response in the donor chamber pre-incubation.

A further data set deals with MDR1 (P-glycoprotein). The data set can be described thus: in vitro. In kind it is in vitro ADME, canine. The conditions noted are these: dog. On the procedure: as §7, §8, §9, §10, §11, §12, §13, §14, §15, §16

Like-named read-outs stand apart in the source and are kept apart here.

T2 sequence (Q84HF5 whole entry C252S/C461S): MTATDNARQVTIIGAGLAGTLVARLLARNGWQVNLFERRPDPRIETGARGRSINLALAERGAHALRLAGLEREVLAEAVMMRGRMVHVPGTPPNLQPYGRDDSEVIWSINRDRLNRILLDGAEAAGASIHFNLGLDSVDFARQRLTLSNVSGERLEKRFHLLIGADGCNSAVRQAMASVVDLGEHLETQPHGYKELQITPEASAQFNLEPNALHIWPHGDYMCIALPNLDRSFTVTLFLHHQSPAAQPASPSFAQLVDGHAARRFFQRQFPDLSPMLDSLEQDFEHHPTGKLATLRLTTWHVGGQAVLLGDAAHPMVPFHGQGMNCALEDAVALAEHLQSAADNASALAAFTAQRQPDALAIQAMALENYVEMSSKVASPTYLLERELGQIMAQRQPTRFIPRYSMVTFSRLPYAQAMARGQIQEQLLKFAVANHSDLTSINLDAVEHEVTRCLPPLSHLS
T1 sequence (O15229 whole entry): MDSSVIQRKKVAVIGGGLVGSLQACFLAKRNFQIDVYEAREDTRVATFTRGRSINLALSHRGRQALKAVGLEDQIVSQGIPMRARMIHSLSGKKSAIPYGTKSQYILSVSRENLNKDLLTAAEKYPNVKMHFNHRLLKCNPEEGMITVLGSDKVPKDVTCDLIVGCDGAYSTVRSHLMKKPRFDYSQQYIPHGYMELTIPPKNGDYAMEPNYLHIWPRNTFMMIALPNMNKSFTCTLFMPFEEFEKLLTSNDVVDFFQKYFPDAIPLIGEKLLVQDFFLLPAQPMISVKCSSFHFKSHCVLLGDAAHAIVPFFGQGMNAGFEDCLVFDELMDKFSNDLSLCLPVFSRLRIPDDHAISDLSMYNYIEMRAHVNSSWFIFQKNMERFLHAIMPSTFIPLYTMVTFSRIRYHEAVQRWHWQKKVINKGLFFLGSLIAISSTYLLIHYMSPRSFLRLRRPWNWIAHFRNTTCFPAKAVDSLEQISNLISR

`CC(C)n1c(CCC(=O)O)ccc1-c1ccc(Cl)cc1` [compound 14, 3-[5-(4-chlorophenyl)-1-(methylethyl)pyrrol-2-yl]propanoic acid]: on Homo sapiens KMO (HsKMO), the IC50 (commonly the point on the concentration scale where inhibition reaches its midpoint) was 38.8 µM.
As for `Cc1cc2c(c(C)c1Cl)N(CC(N)=O)C(=O)CO2` [1g], the IC50 (in data set [1]; at Homo sapiens KMO (HsKMO)) was greater than 300 µM each time.
For `O=C(O)c1ccc(-c2ccc(F)c(Cl)c2)o1` [compound 18, 5-(3-chloro-4-fluorophenyl) furan-2-carboxylic acid], the IC50 was 2.4 ± 0.3 µM in data set [1] and 193 µM on Homo sapiens KMO (HsKMO).
For `Cc1cc2c(c(C)c1Cl)N(CC(=O)N(C)C)C(=O)CO2` [1e] the same measures were greater than 300 µM and roughly 300 µM.
As to `COc1ccc(-c2cn(CC(=O)O)c(=O)cn2)cc1` [compound 15, 2-(5-(4-methoxyphenyl)-2-oxopyrazin-1(2H)-yl)acetic acid], the figures for the half-maximal inhibitory concentration (IC50) (in data set [1] (read-out: IC50 PfKMO); on Homo sapiens KMO (HsKMO)) were 6.3 ± 0.6 µM and 54.2 µM, respectively.
In the case of `CC[C@]1(O)C[C@@H]2CN(CCc3c([nH]c4ccccc34)[C@@](C(=O)OC)(c3cc4c(cc3OC)N(C)[C@H]3[C@@](O)(C(=O)OC)[C@H](OC(C)=O)[C@]5(CC)C=CCN6CC[C@]43[C@@H]65)C2)C1` [Vinblastine, reference compound], the Papp A→B (commonly the apparent permeability from the apical to the basolateral side of a cell layer) at 1 h, 10 µM in the data set “in vitro” (pH 7.4, Papp A>B n=1, wild type MDCK) was less than 1 ×10⁻⁶ cm/s; in the data set “in vitro” (pH 7.4, Papp A>B n=2, wild type MDCK), less than 1 ×10⁻⁶ cm/s; in the data set “in vitro” (pH 7.4, wild type MDCK, read-out: Papp A>B Mean), less than 1 ×10⁻⁶ cm/s; in the data set with MDR1 (P-glycoprotein) (MDCK-MDR1, pH 7.4, MDR1 MDCK, read-out: Papp A>B Mean) it was less than 1 ×10⁻⁶ cm/s; in the data set on MDR1 (P-glycoprotein) (MDCK-MDR1, pH 7.4, Papp A>B n=1, MDR1 MDCK), less than 1 ×10⁻⁶ cm/s; in the data set with MDR1 (P-glycoprotein) (MDCK-MDR1, pH 7.4, Papp A>B n=2, MDR1 MDCK) it was less than 1 ×10⁻⁶ cm/s. In addition, the Papp B→A (commonly how fast a substance crosses the layer from the basolateral side) at 1 h, 10 µM was determined as 3.6 ×10⁻⁶ cm/s in the data set “in vitro” (pH 7.4, Papp B>A n=1, wild type MDCK); 3.9 ×10⁻⁶ cm/s in “in vitro” (pH 7.4, Papp B>A n=2, wild type MDCK); 3.75 ×10⁻⁶ cm/s in the data set “in vitro” (pH 7.4, wild type MDCK, read-out: Papp B>A Mean); 22 ×10⁻⁶ cm/s with MDR1 (P-glycoprotein) (MDCK-MDR1, pH 7.4, MDR1 MDCK, read-out: Papp B>A Mean); 24 ×10⁻⁶ cm/s in the data set with MDR1 (P-glycoprotein) (MDCK-MDR1, pH 7.4, Papp B>A n=1, MDR1 MDCK); 20 ×10⁻⁶ cm/s in the data set with MDR1 (P-glycoprotein) (MDCK-MDR1, pH 7.4, Papp B>A n=2, MDR1 MDCK). The recovery at 1 h, 10 µM is 46.5% in “in vitro” (pH 7.4, wild type MDCK, read-out: Recovery A>B Mean); 48% in the data set “in vitro” (pH 7.4, wild type MDCK, read-out: Recovery A>B n=1); 45% in “in vitro” (pH 7.4, wild type MDCK, read-out: Recovery A>B n=2); 72.5% in “in vitro” (pH 7.4, wild type MDCK, read-out: Recovery B>A Mean); 71% in “in vitro” (pH 7.4, wild type MDCK, read-out: Recovery B>A n=1); 74% in the data set “in vitro” (pH 7.4, wild type MDCK, read-out: Recovery B>A n=2). Also, the recovery at 1 h, 10 µM stood at 55% with MDR1 (P-glycoprotein) (MDCK-MDR1, pH 7.4, MDR1 MDCK, read-out: Recovery A>B Mean); 55% in the data set on MDR1 (P-glycoprotein) (MDCK-MDR1, pH 7.4, MDR1 MDCK, read-out: Recovery A>B n=1); 55% in the data set on MDR1 (P-glycoprotein) (MDCK-MDR1, pH 7.4, MDR1 MDCK, read-out: Recovery A>B n=2); 67.5% with MDR1 (P-glycoprotein) (MDCK-MDR1, pH 7.4, MDR1 MDCK, read-out: Recovery B>A Mean); 71% in the data set on MDR1 (P-glycoprotein) (MDCK-MDR1, pH 7.4, MDR1 MDCK, read-out: Recovery B>A n=1); 64% in the data set on MDR1 (P-glycoprotein) (MDCK-MDR1, pH 7.4, MDR1 MDCK, read-out: Recovery B>A n=2).
